Source: patent US20240148745A1, “COMPOUNDS FOR USE IN PROGRESSIVE MULTIPLE SCLEROSIS” (FONDAZIONE CENTRO SAN RAFFAELE, priority 2021, published 2024)

Columns and labels:
[1] = test system: neonatal mouse oligodendrocyte progenitor cells; assay: MTT metabolic activity / toxicity assay on neonatal mouse OPCs; assay type: cell-based; conditions: 1 and 10 microM, viability vs DMSO
Procedure: Purified oligodendrocyte progenitor cells (OPC) obtained from neonatal mouse primary mixed glial cultures^25 were plated at the density of 6*10^4 cells/cm^2 into poly-L-lysine-coated 96 well plates. One day after plating, the cells were incubated with or without drugs (10, 1 and 0.1 μM) in DMSO (0.001% vehicle) for 48 hours. Compounds were screened for their ability to reduce [3-(4,5-dimethylthiazol-2-yl)-2,5-diphenyltetrazolium bromide (MTT)] using an automated microplate reader (Bio-rad, Hercules, CA, USA), as previously described.^25 MTT (0.25 mg/ml, Sigma-Aldrich, St Louis, MO) was added to the culture medium during the final 4 hours of incubation.
Toxicity of the full list of drugs (274) at 10 μM have been evaluated on neonatal mouse oligodendrocyte progenitor cells via metabolic activity by MTT. First, drugs able to reduce OPC viability were selected, identifying 90 compounds with a cytotoxic effect defined by the Efficacy Ratio ER (absorbance of drug/absorbance of vehicle; PMID: 28387380) (ER≤0.4) which have not been further investigated—and 44 drugs inhibiting OPC metabolism at lower level (0.5<ER<0.8)—which were analyzed in the next experimental setting. As a result, 90 compounds were cytotoxic, 44 compounds with low toxicity were retested at 1 and 0.1 μM, 140 compounds (ER>0.8) were non-toxic and were re-tested.

[2] = test system: double fluorescence CG4 cell line (rat OPC line); assay: Toxicity assay (cell density) on double fluorescence CG4 line; assay type: cell-based; conditions: 1 and 10 microM, viability vs basal condition
Description: Primary validation on CG4 line toxicity and differentiation. An innovative OPC line was developed for fast and reliable high content screening (HCS) of small compounds inducing oligodendrocyte differentiation. The line was genetically engineered by lentiviral transduction of rat CG4 cells (PubMed=1613821; DOI=10.1002/jnr.490310125; Louis J. C., Magal E., Muir D., Manthorpe M., Varon S.; CG-4, a new bipotential glial cell line from rat brain, is capable of differentiating in vitro into either mature oligodendrocytes or type-2 astrocytes. J. Neurosci. Res. 31:193-204(1992) to express mCherry fluorescent reporter (Evercooren, Anne & Avellana-Adalid, V. & Vitry, Sandrine & Nait-Oumesmar, Brahim & Lachapelle, Francois. (1997). Expansion of Oligodendrocyte Progenitors for Myelin Repair. 10.1007/978-1-4615-5949-8_21) in mature oligodendrocytes only, and EGFP at all stage of the oligodendroglial lineage: both the generation of mature oligodendrocytes (wmNl-mCherry) and the morphological changes associated with differentiation (CMV-EGFP) can be therefore monitored in a single assay. mCherry expression occurred only in O4+/GalC+ differentiated oligodendrocytes and GFP was ubiquitously expressed at all developmental stages. […]
Compounds (272) were tested at 1 μM, using a double fluorescence CG4 cell line (rat OPC line), 9 cis-retinoic acid (1 μM) served as a positive control.

Q: Which “cytotoxicity on neonatal mouse OPCs” value [1] does the source give for `O=C(N[C@@H]1CC[C@@H](c2cccc(F)c2F)CN(CC(F)(F)F)C1=O)N1CCC(n2c(=O)[nH]c3ncccc32)CC1` [Telcagepant] here?
A: The value was “not toxic on oligodendrocytes”.

Q: What about the “cytotoxicity on CG4 line” value [2] of the same compound?
A: The value was “not toxic on oligodendrocytes”.
